Active and inactive are the calls of the source. The calls are words filed in the database; no cut-off is given here.
Columns and labels:
[1] = molecular target: T1, Peroxisome proliferator-activated receptor delta (Homo sapiens) (UniProt Q03181); assay: Agonist activity at PPARdelta expressed in african green monkey CV1 cells co-expressing MH100 by luciferase reporter gene assay; type: functional, cell-based; conditions: CV-1
T1 sequence (whole entry): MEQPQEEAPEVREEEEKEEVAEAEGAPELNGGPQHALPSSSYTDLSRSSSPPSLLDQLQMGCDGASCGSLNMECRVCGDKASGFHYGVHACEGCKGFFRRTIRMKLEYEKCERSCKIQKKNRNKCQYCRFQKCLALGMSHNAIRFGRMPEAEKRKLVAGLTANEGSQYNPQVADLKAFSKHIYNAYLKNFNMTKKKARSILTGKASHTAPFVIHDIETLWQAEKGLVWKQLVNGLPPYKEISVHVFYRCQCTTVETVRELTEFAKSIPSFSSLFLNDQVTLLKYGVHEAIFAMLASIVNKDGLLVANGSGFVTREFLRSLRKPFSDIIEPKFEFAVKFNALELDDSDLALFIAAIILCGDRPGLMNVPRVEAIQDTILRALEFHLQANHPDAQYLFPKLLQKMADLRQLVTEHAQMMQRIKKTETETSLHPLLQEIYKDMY

[2] = molecular target: Retinoic acid receptor RXR-alpha (Homo sapiens) (UniProt P19793); assay: Agonist activity at RXRalpha-LBD expressed in african green monkey CV1 cells co-expressing MH100 by luciferase reporter gene assay; type: functional, cell-based; conditions: CV-1
Retinoic acid receptor RXR-alpha (Homo sapiens), sequence (P19793 whole entry, the tested form may be a part): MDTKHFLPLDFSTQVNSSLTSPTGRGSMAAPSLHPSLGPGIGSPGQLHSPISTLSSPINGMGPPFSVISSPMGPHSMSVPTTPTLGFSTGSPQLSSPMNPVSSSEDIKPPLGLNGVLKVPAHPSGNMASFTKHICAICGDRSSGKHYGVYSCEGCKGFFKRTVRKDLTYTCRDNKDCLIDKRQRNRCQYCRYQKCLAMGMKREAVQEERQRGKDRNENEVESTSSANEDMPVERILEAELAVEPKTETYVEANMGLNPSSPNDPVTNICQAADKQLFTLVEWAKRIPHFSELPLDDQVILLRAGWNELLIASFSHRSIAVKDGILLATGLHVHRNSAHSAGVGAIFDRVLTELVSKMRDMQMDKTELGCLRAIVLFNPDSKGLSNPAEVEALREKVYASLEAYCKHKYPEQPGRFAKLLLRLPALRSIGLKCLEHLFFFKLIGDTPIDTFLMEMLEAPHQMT

[3] = molecular target: T2, Progesterone receptor (Homo sapiens) (UniProt P06401); assay: Agonist activity at gal-PR expressed in african green monkey CV1 cells co-expressing MH100 by luciferase reporter gene assay; type: functional, cell-based; conditions: CV-1
T2 sequence (whole entry): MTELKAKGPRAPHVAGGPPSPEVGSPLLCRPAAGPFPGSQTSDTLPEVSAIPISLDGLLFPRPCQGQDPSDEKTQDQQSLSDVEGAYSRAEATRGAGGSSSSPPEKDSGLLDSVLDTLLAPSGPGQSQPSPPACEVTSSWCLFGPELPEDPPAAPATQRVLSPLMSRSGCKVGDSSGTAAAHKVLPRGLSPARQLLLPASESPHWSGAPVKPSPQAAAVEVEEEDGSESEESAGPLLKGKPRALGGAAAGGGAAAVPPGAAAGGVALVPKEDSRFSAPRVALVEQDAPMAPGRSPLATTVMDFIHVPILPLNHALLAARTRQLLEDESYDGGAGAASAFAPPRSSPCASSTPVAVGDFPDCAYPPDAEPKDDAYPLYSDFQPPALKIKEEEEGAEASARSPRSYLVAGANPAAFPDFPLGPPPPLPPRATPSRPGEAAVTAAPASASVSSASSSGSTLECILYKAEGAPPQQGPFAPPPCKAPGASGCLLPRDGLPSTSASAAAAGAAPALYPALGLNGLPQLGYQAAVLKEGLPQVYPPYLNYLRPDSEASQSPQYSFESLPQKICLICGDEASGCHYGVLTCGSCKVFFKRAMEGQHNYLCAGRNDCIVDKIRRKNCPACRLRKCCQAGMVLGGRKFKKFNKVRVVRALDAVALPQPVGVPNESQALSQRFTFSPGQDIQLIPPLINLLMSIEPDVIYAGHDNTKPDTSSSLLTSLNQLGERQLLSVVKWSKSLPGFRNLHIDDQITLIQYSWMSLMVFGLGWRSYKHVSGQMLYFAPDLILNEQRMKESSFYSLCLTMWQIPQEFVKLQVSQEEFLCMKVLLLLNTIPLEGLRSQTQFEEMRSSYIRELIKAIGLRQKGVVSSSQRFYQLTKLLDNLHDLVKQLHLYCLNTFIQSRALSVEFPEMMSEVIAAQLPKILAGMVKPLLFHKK

[4] = molecular target: T3, Bile acid receptor (Homo sapiens) (UniProt Q96RI1); assay: Agonist activity at human FXR expressed in african green monkey CV1 cells co-expressing ECRE with RXR co-factor up to 10 uM by luciferase reporter gene assay relative to CDCA; type: functional, cell-based; conditions: CV-1
T3 sequence (whole entry): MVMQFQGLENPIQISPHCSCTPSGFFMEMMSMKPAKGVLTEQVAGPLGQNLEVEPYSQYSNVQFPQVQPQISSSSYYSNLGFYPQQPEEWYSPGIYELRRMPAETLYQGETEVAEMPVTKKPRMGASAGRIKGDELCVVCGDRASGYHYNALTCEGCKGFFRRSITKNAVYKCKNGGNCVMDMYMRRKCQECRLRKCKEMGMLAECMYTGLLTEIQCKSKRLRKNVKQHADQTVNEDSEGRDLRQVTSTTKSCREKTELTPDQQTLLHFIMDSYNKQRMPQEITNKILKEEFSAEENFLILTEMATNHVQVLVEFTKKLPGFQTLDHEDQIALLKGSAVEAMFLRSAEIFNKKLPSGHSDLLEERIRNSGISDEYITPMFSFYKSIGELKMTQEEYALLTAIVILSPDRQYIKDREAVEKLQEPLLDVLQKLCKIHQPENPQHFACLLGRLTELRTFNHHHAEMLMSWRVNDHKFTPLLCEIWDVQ

[5] = molecular target: T4, Peroxisome proliferator-activated receptor alpha (Homo sapiens) (UniProt Q07869); assay: Agonist activity at PPARalpha expressed in african green monkey CV1 cells co-expressing MH100 up to 10 uM by luciferase reporter gene assay relative to control; type: functional, cell-based; conditions: CV-1
T4 sequence (whole entry): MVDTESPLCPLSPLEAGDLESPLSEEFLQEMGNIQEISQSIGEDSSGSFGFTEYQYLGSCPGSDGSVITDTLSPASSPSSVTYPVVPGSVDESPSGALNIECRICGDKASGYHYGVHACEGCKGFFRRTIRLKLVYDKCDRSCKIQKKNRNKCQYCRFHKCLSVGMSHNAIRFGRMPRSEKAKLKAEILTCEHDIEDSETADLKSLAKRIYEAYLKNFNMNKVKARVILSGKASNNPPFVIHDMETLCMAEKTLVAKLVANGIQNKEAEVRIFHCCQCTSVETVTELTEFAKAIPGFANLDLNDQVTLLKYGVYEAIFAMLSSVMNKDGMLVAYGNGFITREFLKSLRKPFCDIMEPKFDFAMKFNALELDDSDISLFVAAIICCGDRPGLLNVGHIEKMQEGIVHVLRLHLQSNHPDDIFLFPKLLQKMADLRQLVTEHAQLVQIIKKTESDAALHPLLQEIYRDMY

[6] = molecular target: T1, Peroxisome proliferator-activated receptor delta (Homo sapiens); assay: Agonist activity at PPARdelta expressed in african green monkey CV1 cells co-expressing MH100 up to 10 uM by luciferase reporter gene assay relative to control; type: functional, cell-based; conditions: CV-1
[7] = molecular target: T2, Progesterone receptor (Homo sapiens); assay: Agonist activity at gal-PR expressed in african green monkey CV1 cells co-expressing MH100 up to 10 uM by luciferase reporter gene assay relative to control; type: functional, cell-based; conditions: CV-1
[8] = molecular target: T3, Bile acid receptor (Homo sapiens); assay: Antagonist activity at human FXR expressed in african green monkey CV1 cells co-expressing RXRE with RXR co-factor by luciferase reporter gene assay; type: functional, cell-based; conditions: CV-1
[9] = AUC (0 to t) in CD rat at 3 mg/kg, po; type: ADME, organism-based; design: dose 3 mg/kg, route oral; conditions: plasma
Rattus norvegicus = assay: Clearance in CD rat assessed as liver blood flow at 3 mg/kg; type: ADME, organism-based; design: dose 3 mg/kg; conditions: in vivo
Mus musculus = assay: Inhibition of preatherosclerotic lesion in LDLR knockout mouse model at 3 mg/kg, po administered for 6 weeks by en-face analysis; type: functional; design: scale not given: the % may be the effect or the level left
[10] = Oral bioavailability in CD rat at 3 mg/kg; type: ADME, organism-based; conditions: in vivo

Activity [1]: inactive
Activity [2]: inactive
Activity [3]: inactive
Efficacy [4]: 149%
Activity [5]: inactive
Activity [6]: inactive
Activity [7]: inactive
Activity [8]: inactive
AUC(0-t) [9]: 7 µM·h
LBF (Rattus norvegicus): 10%
bioavailability [10]: 37.6%
Compound: CC(C)OC(=O)C1=CN(C(=O)c2ccc(F)c(F)c2)CC(C)(C)c2c1[nH]c1ccccc21 [TUROFEXORATE ISOPROPYL]
Activity (Mus musculus): 36%
